Laboratory results published in patent US8828724B2, “Method for preparing cells for engraftment” (Institut National de la Sante et de la Recherche Medicale …, priority 2007, dated 2014).
Peptide text beside a SMILES is read from it.

Tests used:
BM-MNC [1] = assay: Apoptosis evaluation via observation of nuclear morphology; type: cell-based, mouse; settings: 100 μM, pre-treated or continued presence, 5 days of culture, FIG. 13
Protocol: BM-MNC were grown onto gelatin/vitronectin matrix for 5 days in EBM in the continued presence of TSP1 or the 4N1-1 and 4N1-2 peptides, or treated for the last 24 h only. […] Non adherent cells were eliminated and adherent cells fixed with PBS-PFA 4% followed by addition of DAPI (Di-aminidophenylindol, 0.01 mg/ml) that becomes fluorescent after integration between DNA bases. […] Experiments were repeated at least three times.
After observing increased BM-MNC adhesion following treatment with peptide 4N1-1, the inventors examined the extent of apoptosis triggered by peptide 4N1-1.

BM-MNC [2] = assay: Apoptosis evaluation via quantification of intact DNA content; type: cell-based; settings: 50 μM for 10 or 120 min, culture up to 24 hours, FIG. 29
Protocol: BM-MNC were isolated and treated with 4N1-1 peptide for 10 or 120 min, washed with PBS and cultured in EBM onto gelatin/vitronectin matrix for up to 24 hours. Untreated fresh cells served as control for live cells. […] After treatment and culture, non adherent and adherent cells were harvested and analyzed separately, fixed with ice-cold ethanol 70% in PBS, and incubated for 45 min in PBS containing Triton X-100 (0.05%), propidium iodide (PI; 50 μg/ml) and RNase-A (100 μg/ml). PI becomes fluorescent after integration between DNA bases. […] Experiments were repeated three times.
The inventors examined the extent of apoptosis in BM-MNC treated with peptide 4N1-1 and 4N1-2, using a second method. BM-MNC were pre-treated with 4N1-1 or 4N1-2 (50 μM) for 10 or 120 min, and cultured in full EBM2 medium, with serum and growth factors for up to 24 hours, to allow potential apoptotic reactions to proceed (FIG. 29). […] After culture, adherent and non-adherent cells were harvested and analyzed separately.

BM-MNC [3] = assay: BM-MNC adhesion onto gelatin/vitronectin or fibrin gels for 30 min after pre-treatment; type: cell-based, mouse; settings: 2 h pre-treatment
Protocol: Tibias, femurs and humerus of C57BL/6 male mice were carefully dissected, bone marrow was extracted and dissociated, and bone marrow mononuclear cells (BM-MNC) were separated by differential centrifugation on Ficoll gradients (Histopaque-1083, Sigma), (2,000 r.p.m, 25 min). BM-MNC were then washed with PBS and pelleted (2,000 r.p.m, 10 min).
(§1) To evaluate the effects of TSP1 or peptides derived from its carboxyterminal sequence, 4N1-1 and 4N1-2, on cell adhesion onto gelatin/vitronectin, fibrin gels or activated SVEC monolayers, 2.10^6/ml BM-MNC or PBMC, or 10^6/ml HUCB-EPC were pretreated for 2 h at 37° C. in an incubator with 5% CO2, in the presence of TSP1 ([…]), or the 4N1-1 or 4N1-2 peptides (100 μM), or control BSA (1%), or with mouse monoclonal anti-human CD47 IgG1 B6H12 (40 μg/ml), or matched control isotype mouse IgG1 (40 μg/ml), before PBS washes and culture for the specified length of time. For adhesion experiments, supernatants were removed, adherent cells were gently washed with PBS. The number of adherent cells per high power field was counted in 3 to 5 fields per well using an inverted phase-contrast microscope at high magnification (×400).
(§2) Mouse BM-MNC and HUCB-EPC adhesion was evaluated in vitro. The effects of purified or recombinant platelet proteins, or peptide agonists of the CD47/IAP receptor was characterized. Two main approaches were used: • 1. Pre-incubation of the cells with platelet proteins for 2 h before measuring their adhesion on gelatin/vitronectin control matrix or fibrin gels for 30 min. • 2. Cell adhesion on gelatin/vitronectin control matrix or fibrin gels for 16 h in the presence of platelet proteins in solution.

[4] = systemic injection of significant doses; cited from earlier work
BM-MNC [5] = assay: Endothelial differentiation of BM-MNC (Dil-Ac-LDL / BS1-lectin double labelling); type: cell-based, mouse; settings: 2 h pre-treatment, 5 days culture, FIG. 12
Protocol: BM-MNC were cultured onto gelatin/vitronectin in EBM medium for 5 days. After eliminating non adherent cells, EPC were identified through double-labelling for two endothelial characteristics: incorporation of Dil-labelled acetylated low density lipoproteins (Dil-Ac-LDL; 1 μg/ml, BioHarbor Products; red fluorescence) and binding of FITC-labelled BS1-lectin (1 μg/ml, Sigma; green fluorescence). Double fluorescence allowed the microscopic identification and counting of EPC in 3 to 5 fields per well (400× magnification). Experiments were repeated at least three times, and results expressed as percentages of EPC.
Following the previous observation that TSP1 and peptide 4N1-1 stimulate BM-MNC adhesion in vitro, the inventors measured the endothelial differentiation of treated BM-MNC. BM-MNC were cultured for 5 days, following a 2 h pre-treatment with recombinant or purified TSP1, or with peptides 4N1-1, 4N1-2, or CSVTCG (a peptide derived from the TSP1 sequence). EPC-differentiated BM-MNC were identified by fluorescence microscopy after double-labelling for Dil-Ac-LDL incorporation and BS1 lectin binding.

BM-MNC [6] = assay: BM-MNC adhesion onto interleukin-1β-pre-activated murine endothelial monolayers; type: cell-based, mouse; settings: 2 h pre-treatment; TSP1 10 μg/ml, 4N1-1 100 μM; 30 min adhesion, FIG. 9
Protocol: SV40-transformed mouse lymph node endothelial cells (SVEC from ATCC), were grown in Dulbecco's Modified Eagle Medium (DMEM) supplemented with 20% FCS in 24 well plaques until they reached full confluency (7 days). SVEC monolayers were activated with 5 nM murine interleukin-1β (Calbiochem) for 2 h prior to cell-cell adhesion experiments.
as §1
BM-MNC were pre-treated for 2 h with recombinant or purified human TSP1 (10 μg/ml), or with peptide 4N1-1 (100 μM), and measured their adhesion after 30 min onto interleukin-1β-pre-activated murine endothelial monolayers. […]

HUCB-EPC = HUCB-EPC adhesion onto gelatin/vitronectin or fibrin gels for 15 min after pre-treatment; type: cell-based, Human; settings: 2 h pre-treatment, 15 min adhesion, FIG. 8
Protocol: Human umbilical cord blood (30-50 ml) was collected in sterile tubes containing heparin (15 UI/ml, Sanofi) following standard protocols in agreement with Hôpital Lariboisiére and Inserm ethical guidelines. PBMC were isolated via Ficoll gradient centrifugation (Histopaque-1077, Dominique Dutscher). To eliminate mature endothelial cells, mononuclear cells were seeded (6.10^6 cells/ml) in culture dishes (100×20 mm) at 37° C. with 5% CO2 for 16 h. Adherent cells were eliminated. Non-adherent cells were cultured and differentiated into Human umbilical cord blood-derived endothelial progenitor cells (HUCB-EPC) in 6-well plates (10^7 cells/well) on collagen type 1 matrix (Coll1; 90 μg/ml, Sigma) in M199 growth medium (Gibco) complete with L-glutamine, HEPES buffer (25 mM; Eurobio), antibiotics and antimycotics (penicillin 10000 units/ml, streptomycin 10,000 μg/ml, fongizone 25 μg/ml) and 20% FCS (Dominique Dutscher), as well as 10 ng/ml VEGF (R&D Systems).
as §1

BM-MNC [7] = assay: BM-MNC adhesion onto gelatin/vitronectin for 16 h with proteins in solution; type: cell-based, mouse; settings: 16 h in presence of 100 μg/ml, FIG. 3
Protocol: as §2
BM-MNC were incubated for 16 h on gelatin/vitronectin matrix in the presence of PPP, recombinant TSP1 (100 μg/ml), or peptide 4N1-1 (100 μM) before adhesion was quantified through direct cell counts by phase-contrast microscopy. As reported in FIG. 3, TSP1 stimulated adhesion by over three fold compared to the gelatin/vitronectin control (+206.8%, p<0.05).

[8] = 30 min adhesion, gelatin/vitronectin, FIG. 26
[9] = BM-MNC, 30 min adhesion, FIG. 1

CSCC[C@H](NC(=O)[C@@H](NC(=O)[C@@H](NC(=O)[C@H](Cc1ccc(O)cc1)NC(=O)[C@H](Cc1ccccc1)NC(=O)[C@@H](N)CCCNC(=N)N)C(C)C)C(C)C)C(=O)N[C@@H](Cc1c[nH]c2ccccc12)C(=O)N[C@@H](CCCCN)C(=O)O [4N1-1]
apoptosis compared to BSA (BM-MNC [1]): did not stimulate apoptosis significantly

CSCC[C@H](NC(=O)[C@@H](NC(=O)[C@@H](NC(=O)[C@H](Cc1ccc(O)cc1)NC(=O)[C@H](Cc1ccccc1)NC(=O)[C@@H](N)CCCNC(=N)N)C(C)C)C(C)C)C(=O)O [4N1-2, RFYVVM, reference compound] (H-RFYVVM-OH)
apoptosis compared to staurosporine or control, adherent and non-adherent cells (BM-MNC [2]): did not stimulate apoptosis significantly
apoptosis compared to BSA (BM-MNC [1]): did not stimulate apoptosis significantly

CSVTCG (TSP-1 fragment) [reference compound]
inhibition of adhesion compared with BSA (BM-MNC [3]; 30 min adhesion, gelatin/vitronectin, FIG. 7): 21%

FIRGGMYEGKK (7NGG) [mutated 7N3, reference compound]
modulation of BM-MNC adhesion compared with BSA (BM-MNC [3]; [8]): no significant modulation

FIRVVMYEGKK (7N3 peptide)
modulation of BM-MNC adhesion compared with BSA (BM-MNC [3]; [8]): stimulated BM-MNC adhesion significantly

KRFYVVMWKK (4N1K peptide)
gross coagulation parameters [4]: does not modulate gross coagulation parameters
lethality [4]: not lethal

RFYGGMWK (4NGG) [mutated 4N1-1, reference compound]
modulation of BM-MNC adhesion compared with BSA (BM-MNC [3]; [8]): no significant modulation

TSP1: recombinant or purified Thrombospondin-1, not specified which at b144
stimulation of adhesion on fibrin compared with BSA (BM-MNC [3]; [9]): +74.0%
stimulation of adhesion onto gelatin/vitronectin compared with BSA (BM-MNC [3]; [9]): +160.6%

leptin: recombinant human leptin (Biovision)
modulation of BM-MNC adhesion compared with BSA (BM-MNC [3]; SDF1 100 ng/ml, EphB2-Fc 3 μg/ml, EBM2 50%, leptin 100 ng/ml, gelatin/vitronectin 30 min, FIG. 27): moderate increase

purified TSP1: Human purified Thrombospondin-1 prepared at Inserm Unit U553
stimulation of BM-MNC adhesion onto gelatin/vitronectin compared with BSA (BM-MNC [3]; 30 min adhesion, FIG. 7): +143.8%
stimulation of endothelial differentiation vs BSA (BM-MNC [5]): +28.9%
stimulation of adhesion onto endothelial monolayers compared with BSA (BM-MNC [6]): +40.5%
stimulation of HUCB-EPC adhesion onto fibrin compared with BSA (HUCB-EPC): +33.3%
stimulation of HUCB-EPC adhesion onto gelatin-vitronectin compared with BSA (HUCB-EPC): +52.5%

recombinant TSP1: Human recombinant Thrombospondin-1 produced by EMP-Genetech
concentration at which maximal stimulation of adhesion was reached (BM-MNC [3]; 30 min adhesion, FIG. 2): 20 µg/mL
concentration from which adhesion onto gelatin/vitronectin was stimulated significantly (BM-MNC [3]; 30 min adhesion, FIG. 2): ≥ 5 µg/mL
stimulation of BM-MNC adhesion onto gelatin/vitronectin compared with BSA (BM-MNC [3]; 30 min adhesion, FIG. 7): +65.6%
maximal stimulation of adhesion onto gelatin/vitronectin compared with BSA (BM-MNC [3]; at 20 μg/ml, FIG. 2): +179.3%
stimulation of endothelial differentiation vs BSA (BM-MNC [5]): +28.0%
stimulation of adhesion compared to the gelatin/vitronectin control (BM-MNC [7]): +206.8%
stimulation of adhesion onto endothelial monolayers compared with BSA (BM-MNC [6]): +34.2%
stimulation of HUCB-EPC adhesion onto fibrin compared with BSA (HUCB-EPC): +37.6%
stimulation of HUCB-EPC adhesion onto gelatin-vitronectin compared with BSA (HUCB-EPC): +106.3%
